The target in one assay is T1, wildtype Kras / hSOS1 (Homo sapiens, UniProt P01116).
T1 construct: made in house; host or cells: E. coli BL21 (DE3)
The assay can be described thus: HTRF assay, wildtype Kras / SOS1 interaction. Format: binding. As to conditions: compound nos. 102-196, general methodology of example 5; read-out: IC50 against wildtype Kras. An excerpt: (§1) This assay can be also used to assess a selective inhibition of a mutant Ras protein relative to a wildtype, or relative to a different mutant Ras protein. For example, the equilibrium interaction of wildtype Kras or K-Ras mutant (e.g., wildtype or a mutant thereof including those mentioned in Example 6) with SOS1 (e.g., hSOS1) can be assessed as a proxy or an indication for a subject compound's ability to bind and inhibit Ras protein. HTRF assay detects from (i) a fluorescence resonance energy transfer (FRET) donor (e.g., antiGST-Europium) that is bound to GST-tagged K-Ras mutant to (ii) a FRET acceptor (e.g., anti-6His-XL665) bound to a His-tagged hSOS1.
(§2) The assay buffer can contain ˜5 mM HEPES pH 7.4, ˜150 mM NaCl, ˜ 1 mM DTT, 0.05% BSA and 0.0025% (v/v) Igepal. A Ras working solution is prepared in an assay buffer containing typically a suitable amount of the protein construct (e.g., GST-tagged K-Ras mutant) and the FRET donor (e.g., antiGST-Eu(K) from Cisbio, France). A SOS1 working solution is prepared in an assay buffer containing suitable amount of the protein construct (e.g., His-hSOS1) and the FRET acceptor (e.g., anti-6His-XL665 from Cisbio, France). A suitable amount of the protein construct will depend on the range of activity or range of IC50 values being detected or under investigation. For detecting IC50 within a range of 500 nM, the protein constructs of the same range of molarity can be utilized.
(§3) A fixed volume of DMSO with or without test compound is transferred into a 384-well plate. Ras working solution is added to all wells of the test plate. SOS1 working solution is added to all wells except for those that are subsequently filled the inhibitor control solution. Upon incubation for about 10 minutes or longer, the fluorescence is measured with a M1000Pro plate reader (Tecan) using HTRF detection (excitation 337 nm, emission 1: 620 nm, emission 2: 665 nm). Compounds are tested in duplicates at different concentrations (for example, 10 μM, 2.5 μM, 0.63 μM, 0.16 μM, 0.04 µM, 0.01 μM test compound). The ratiometric data (i.e., emission 2 divided by emission 1) is used to calculate IC50 values against Ras using GraphPad Prism (GraphPad software). Following this general procedure, samples were tested with or without a subject compound disclosed herein including compounds exemplified in Table 1 to assess their abilities to inhibit K-Ras signaling or their respective IC50 values against a given Ras protein (e.g., a given mutant K-Ras) of interest.
(Time-resolved FRET reads energy transfer from a long-lived donor to a nearby acceptor.)

For assay [1], the target named is GST-tagged K-Ras mutant / His-tagged hSOS1 (Homo sapiens, UniProt P01116). The assay can be described thus: HTRF assay, K-Ras mutant / SOS1 interaction. Format: binding. Particulars: compound nos. 102-196, general methodology of example 5; read-out: IC50 against mutant Kras.
Description: as §1, §2, §3

A value given as a limit tells only on which side of the number the result lay.

T1 sequence (P01116 1-188 isoform P01116-2): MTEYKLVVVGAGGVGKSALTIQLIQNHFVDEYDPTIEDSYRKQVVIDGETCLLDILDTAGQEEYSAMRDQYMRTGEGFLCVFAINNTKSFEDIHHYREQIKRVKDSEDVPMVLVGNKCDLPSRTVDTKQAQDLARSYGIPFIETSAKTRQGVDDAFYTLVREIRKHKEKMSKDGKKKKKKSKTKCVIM
Sequence of GST-tagged K-Ras mutant / His-tagged hSOS1 (P01116 whole entry G12D, form open): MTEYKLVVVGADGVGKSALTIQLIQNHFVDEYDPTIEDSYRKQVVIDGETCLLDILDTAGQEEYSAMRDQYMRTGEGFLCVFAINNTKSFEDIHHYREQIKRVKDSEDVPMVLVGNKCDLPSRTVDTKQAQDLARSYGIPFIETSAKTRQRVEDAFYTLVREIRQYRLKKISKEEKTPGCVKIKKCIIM

The IC50 is the concentration at which inhibition is half-maximal. On to `CN1CCC[C@H]1COc1nc(N2CCSCC(F)(F)C2)c2cc(Cl)c(-c3cccc4sc(N)nc34)c(F)c2n1` [Compound 136, 4-(6-chloro-4-(6,6-difluoro-1,4-thiazepan-4-yl)-8-fluoro-2-(((S)-1-methylpyrrolidin-2-yl)methoxy)quinazolin-7-yl)benzo[d]thiazol-2-amine], for which the IC50 (on wildtype Kras / hSOS1; in assay [1]) was less than 500 nM throughout.
For the compound `CN1CCC[C@H]1COc1nc(N2CC3CNC(C3)C2)c2cc(Cl)c(-c3cccc4sc(N)nc34)c(F)c2n1` (stereo partly drawn) [Compound 137, 4-(4-(3,6-diazabicyclo-[3.2.1]octan-3-yl)-6-chloro-8-fluoro-2-(((S)-1-methyl-pyrrolidin-2-yl)methoxy)-quinazolin-7-yl)benzo[d]-thiazol-2-amine], the IC50 (on wildtype Kras / hSOS1; in assay [1]) was more than 500 nM throughout.
As for `Cc1nc2c(-c3c(Cl)cc4c(N5CCNCC(F)(F)C5)nc(OC[C@@H]5CCCN5C)nc4c3F)cccc2s1` [Compound 138, 4-(6-chloro-4-(6,6-difluoro-1,4-diazepan-1-yl)-8-fluoro-2-(((S)-1-methylpyrrolidin-2-yl)methoxy)quinazolin-7-yl)-2-methylbenzo[d]thiazole], the IC50 (on wildtype Kras / hSOS1; in assay [1]) was more than 500 nM in each case.
As to `Nc1nc2c(-c3c(Cl)cc4c(N5CCNCC(F)(F)C5)nc(OCc5ccccn5)nc4c3F)cccc2s1` [Compound 139, 4-(6-chloro-4-(6,6-difluoro-1,4-diazepan-1-yl)-8-fluoro-2-(pyridin-2-ylmethoxy)-quinazolin-7-yl)benzo[d]-thiazol-2-amine], the IC50 (at wildtype Kras / hSOS1; in assay [1]) was more than 500 nM each time.
Consider `CN1CCC[C@H]1COc1nc(N2CCN(S(C)(=O)=O)CC(F)(F)C2)c2cc(Cl)c(-c3cccc4sc(N)nc34)c(F)c2n1` [Compound 140, 4-(6-chloro-4-(6,6-difluoro-4-(methylsulfonyl)-1,4-diazepan-1-yl)-8-fluoro-2-(((S)-1-methylpyrrolidin-2-yl)methoxy)quinazolin-7-yl)-benzo[d]thiazol-2-amine], for which the results for the IC50 (on wildtype Kras / hSOS1; in assay [1]) were less than 500 nM and more than 500 nM, respectively.
Consider `CN1CCC[C@H]1COc1nc(N2CCN(C(=O)CN)CC(F)(F)C2)c2cc(Cl)c(-c3cccc4sc(N)nc34)c(F)c2n1` [Compound 141, 2-amino-1-(4-(7-(2-amino-benzo[d]thiazol-4-yl)-6-chloro-8-fluoro-2-(((S)-1-methylpyrrolidin-2-yl)meth-oxy)quinazolin-4-yl)-6,6-difluoro-1,4-diazepan-1-yl)-ethan-1-one], for which the IC50 on wildtype Kras / hSOS1 was less than 500 nM; in assay [1], more than 500 nM.
`CN1CCC[C@H]1COc1nc(N2CCNC(=O)CC2)c2cc(Cl)c(-c3cccc4sc(N)nc34)c(F)c2n1` [Compound 142, 1-(7-(2-aminobenzo[d]-thiazol-4-yl)-6-chloro-8-fluoro-2-(((S)-1-methyl-pyrrolidin-2-yl)methoxy)-quinazolin-4-yl)-1,4-diazepan-5-one]: the IC50 (on wildtype Kras / hSOS1; in assay [1]) was less than 500 nM in each case.
Take `CN1CCC[C@H]1COc1nc(N2CCC3CNCC3C2)c2cc(Cl)c(-c3cccc4sc(N)nc34)c(F)c2n1` (stereo partly drawn) [Compound 143, 4-(6-chloro-8-fluoro-2-(((S)-1-methylpyrrolidin-2-yl)-methoxy)-4-(octahydro-5H-pyrrolo[3,4-c]pyridin-5-yl)-quinazolin-7-yl)benzo[d]-thiazol-2-amine]: the IC50 (on wildtype Kras / hSOS1; in assay [1]) was more than 500 nM in each case.
Take `CN1CCC[C@H]1COc1nc(N2CC3CNCC3C2)c2cc(Cl)c(-c3cccc4sc(N)nc34)c(F)c2n1` (stereo partly drawn) [Compound 144, 4-(6-chloro-8-fluoro-4-(hexahydropyrrolo[3,4-c]-pyrrol-2(1H)-yl)-2-(((S)-1-methylpyrrolidin-2-yl)meth-oxy)quinazolin-7-yl)benzo-[d]thiazol-2-amine]: the IC50 (at wildtype Kras / hSOS1; in assay [1]) was more than 500 nM each time.
With `Nc1nc2c(-c3c(Cl)cc4c(N5CCNCC(F)(F)C5)nc(Oc5cccnc5C5CC5)nc4c3F)cccc2s1` [Compound 145, 4-(6-chloro-2-((2-cycloprop-ylpyridin-3-yl)oxy)-4-(6,6-difluoro-1,4-diazepan-1-yl)-8-fluoroquinazolin-7-yl)-benzo[d]thiazol-2-amine], the IC50 (on wildtype Kras / hSOS1; in assay [1]) was more than 500 nM in each case.
`CN1C[C@H](F)C[C@H]1COc1nc(N2CCNCC(F)(F)C2)c2cc(Cl)c(-c3cccc4sc(N)nc34)c(F)c2n1` [Compound 146, 4-(6-chloro-4-(6,6-difluoro-1,4-diazepan-1-yl)-8-fluoro-2-(((2S,4R)-4-fluoro-1-methylpyrrolidin-2-yl)meth-oxy)quinazolin-7-yl)benzo-[d]thiazol-2-amine]: the IC50 (at wildtype Kras / hSOS1; in assay [1]) was less than 500 nM throughout.
Consider `CN1CCC[C@H]1COc1nc(N2CCCOCC2)c2cc(Cl)c(-c3ccc(F)c4sc(N)nc34)c(F)c2n1` [Compound 147, 4-(6-chloro-8-fluoro-2-(((S)-1-methylpyrrolidin-2-yl)-methoxy)-4-(1,4-oxazepan-4-yl)quinazolin-7-yl)-7-fluorobenzo[d]thiazol-2-amine], for which the IC50 (on wildtype Kras / hSOS1; in assay [1]) was less than 500 nM each time.
As for `Nc1nc2c(-c3c(Cl)cc4c(N5CCCOCC5)nc(OCC56CCCN5CCC6)nc4c3F)ccc(F)c2s1` [Compound 148, 4-(6-chloro-8-fluoro-4-(1,4-oxazepan-4-yl)-2-((tetra-hydro-1H-pyrrolizin-7a(5H)-yl)methoxy)quinazolin-7-yl)-7-fluorobenzo[d]thiazol-2-amine], the IC50 (on wildtype Kras / hSOS1; in assay [1]) was less than 500 nM in each case.
For the compound `CN1CCC[C@H]1COc1nc(N2CCNCC(F)(F)C2)c2cc(Cl)c(-c3cccc4sc(NCC(F)(F)F)nc34)c(F)c2n1` [Compound 149, 4-(6-chloro-4-(6,6-difluoro-1,4-diazepan-1-yl)-8-fluoro-2-(((S)-1-methylpyrrolidin-2-yl)methoxy)quinazolin-7-yl)-N-(2,2,2-trifluoroethyl)-benzo[d]thiazol-2-amine], the IC50 (at wildtype Kras / hSOS1; in assay [1]) was more than 500 nM each time.
With `CN1CCC[C@H]1COc1nc(N2CCN(S(N)(=O)=O)CC(F)(F)C2)c2cc(Cl)c(-c3cccc4sc(N)nc34)c(F)c2n1` [Compound 150, 4-(7-(2-aminobenzo[d]-thiazol-4-yl)-6-chloro-8-fluoro-2-(((S)-1-methyl-pyrrolidin-2-yl)methoxy)-quinazolin-4-yl)-6,6-difluoro-1,4-diazepane-1-sulfonamide], the values for the IC50 (on wildtype Kras / hSOS1; in assay [1]) were less than 500 nM and more than 500 nM, respectively.
In the case of `Nc1nc2c(-c3c(Cl)cc4c(N5CCNCC(F)(F)C5)nc(OCC56CCCN5C(=O)CC6)nc4c3F)cccc2s1` (stereo not shown) [Compound 151, 7a-(((7-(2-aminobenzo[d]-thiazol-4-yl)-6-chloro-4-(6,6-difluoro-1,4-diazepan-1-yl)-8-fluoroquinazolin-2-yl)oxy)methyl)hexahydro-3H-pyrrolizin-3-one], the IC50 (on wildtype Kras / hSOS1; in assay [1]) was more than 500 nM in each case.
As for `CN1CCc2c(cccc2Oc2nc(N3CCNCC(F)(F)C3)c3cc(Cl)c(-c4cccc5sc(N)nc45)c(F)c3n2)C1` [Compound 153, 4-(6-chloro-4-(6,6-difluoro-1,4-diazepan-1-yl)-8-fluoro-2-((2-methyl-1,2,3,4-tetra-hydroisoquinolin-5-yl)oxy)-quinazolin-7-yl)benzo[d]-thiazol-2-amine], the IC50 (on wildtype Kras / hSOS1; in assay [1]) was more than 500 nM each time.

The record behind these values is US20240254129A1, “HETEROCYCLIC COMPOUNDS AND USES THEREOF” (Kumquat Biosciences Inc., priority 2021, published 2024).
